Source: ChEMBL document CHEMBL4311949, “Design, Synthesis, Evaluation, and Structural Studies of C2-Symmetric Small Molecule Inhibitors of Programmed Cell Death-1/Programmed Death-Ligand 1 Protein-Protein Interaction” (J Med Chem, 2019)
Activity calls are given as the source filed them. No cut-off for these calls is given here.

What was measured:
[1] = target: T1, Programmed cell death protein 1/Programmed cell death 1 ligand 1 (Homo sapiens, UniProt Q9NZQ7); assay: Inhibition of human Fc-tagged PD1 N-terminal domain (Leu25 to Gln167 residues) expressed in HEK293 cells/human His-tagged PDL1 (Phe19 to Arg238 residues) expressed in HEK293 cells protein-protein interaction after 1 hr by APC-labeled anti-His antibody/Eu-labeled anti-human IgG based HTRF assay; assay type: cell-based
T1 sequence (Q15116 whole entry, the tested form may be a part): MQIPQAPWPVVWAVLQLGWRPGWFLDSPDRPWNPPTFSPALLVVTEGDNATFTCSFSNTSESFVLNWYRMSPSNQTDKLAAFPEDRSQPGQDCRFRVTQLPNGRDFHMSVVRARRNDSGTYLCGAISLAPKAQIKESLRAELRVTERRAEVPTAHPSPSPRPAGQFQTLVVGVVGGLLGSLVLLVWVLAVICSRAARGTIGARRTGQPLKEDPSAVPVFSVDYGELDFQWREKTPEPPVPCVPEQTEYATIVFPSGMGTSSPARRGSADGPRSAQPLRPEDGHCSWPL
T1 sequence (Q9NZQ7 whole entry, the tested form may be a part): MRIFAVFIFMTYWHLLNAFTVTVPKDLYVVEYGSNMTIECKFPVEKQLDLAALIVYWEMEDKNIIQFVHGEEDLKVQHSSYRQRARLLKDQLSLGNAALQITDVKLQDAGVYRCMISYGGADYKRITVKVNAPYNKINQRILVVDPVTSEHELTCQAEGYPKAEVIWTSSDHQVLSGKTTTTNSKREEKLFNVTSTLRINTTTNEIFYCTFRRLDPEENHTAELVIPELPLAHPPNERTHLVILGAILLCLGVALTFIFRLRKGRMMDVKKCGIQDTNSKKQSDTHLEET

[2] = target: Programmed cell death protein 1/Programmed cell death 1 ligand 1 (Homo sapiens) (UniProt Q15116+Q9NZQ7); assay: (§1) Inhibition of PD1/PDL1 interaction in human Jurkat cells co-cultured with human U2OS cells expressing PDL1 assessed as reduction in SHP1 recruitment preincubated with U2OS cells for 60 mins followed by Jurkat cell addition and measured after 2 hrs by Pathhunter chemiluminescent assay; assay type: cell-based
[3] = Cytotoxicity against CHOK1 cells stably expressing human PDL1 co-cultured with human Jurkat T cell expressing human PD1 measured after 24 hrs by XTT assay; assay type: cell-based, Cricetulus griseus, CHO-K1; conditions: chinese hamster; read-out: MNCC
[4] = Cytotoxicity against human Jurkat T cell expressing human PD1 co-cultured with CHOK1 cells stably expressing human PDL1 measured after 24 hrs by XTT assay; assay type: cell-based; conditions: read-out: MNCC
[5] = Cytotoxicity against CHOK1 cells stably expressing human PDL1 co-cultured with human Jurkat T cell expressing human PD1 assessed as growth inhibition measured after 24 hrs by XTT assay; assay type: cell-based, Cricetulus griseus, CHO-K1; conditions: chinese hamster
[6] = Cytotoxicity against human Jurkat T cell expressing human PD1 co-cultured with CHOK1 cells stably expressing human PDL1 assessed as growth inhibition measured after 24 hrs by XTT assay; assay type: cell-based
[7] = target: Programmed cell death 1 ligand 1 (Homo sapiens) (UniProt Q9NZQ7); assay: Binding affinity to 15N-labelled human PDL1 assessed as induction of oligomerization by 1H-NMR spectra analysis
Chain of Programmed cell death 1 ligand 1 (Homo sapiens) (Q9NZQ7 whole entry): as the sequence (Q9NZQ7 whole entry, the tested form may be a part) above

[8] = target: Programmed cell death 1 ligand 1 (Homo sapiens) (UniProt Q9NZQ7); assay: Binding affinity to 15N-labelled human PDL1 assessed as induction of protein oligomerization by 1H-15N HMQC spectra analysis
[9] = target: T1, Programmed cell death protein 1/Programmed cell death 1 ligand 1; assay: as §1; assay type: cell-based
[10] = target: T1, Programmed cell death protein 1/Programmed cell death 1 ligand 1; assay: Inhibition of human PD1 stably expressed in human Jurkat T cells co-expressing NFAT-induced luciferase/human PDL1 stably expressed in CHOK1 cells co-expressing aAPC protein-protein interaction assessed as increase in NFAT signaling measured after 6 hrs by bio-glo luciferase reporter gene assay; assay type: cell-based
[11] = Toxicity weighted activity index, ratio of GI50 for cytotoxicity against CHOK1 cells stably expressing human PDL1 co-cultured with human Jurkat T cell expressing human PD1 to EC50 for inhibition of PD1/PDL1 interaction in human Jurkat cells co-cultured with human U2OS cells expressing PDL1; assay type: cell-based; conditions: chinese hamster; read-out: Ratio GI50/EC50
[12] = Toxicity weighted activity index, ratio of GI50 for Cytotoxicity against human Jurkat T cell expressing human PD1 co-cultured with CHOK1 cells stably expressing human PDL1 to EC50 for inhibition of PD1/PDL1 interaction in human Jurkat cells co-cultured with human U2OS cells expressing PDL1; assay type: cell-based; conditions: read-out: Ratio GI50/EC50
[13] = Toxicity weighted activity index, ratio of GI50 for cytotoxicity against CHOK1 cells stably expressing human PDL1 co-cultured with human Jurkat T cell expressing human PD1 to EC50 for inhibition of human PD1 stably expressed in human Jurkat T cells co-expressing NFAT-induced luciferase/human PDL1 stably expressed in CHOK1 cells co-expressing aAPC protein-protein interaction; assay type: cell-based; conditions: chinese hamster; read-out: Ratio GI50/EC50
[14] = Toxicity weighted activity index, ratio of GI50 for Cytotoxicity against human Jurkat T cell expressing human PD1 co-cultured with CHOK1 cells stably expressing human PDL1 to EC50 for inhibition of human PD1 stably expressed in human Jurkat T cells co-expressing NFAT-induced luciferase/human PDL1 stably expressed in CHOK1 cells co-expressing aAPC protein-protein interaction; assay type: cell-based; conditions: read-out: Ratio GI50/EC50

SMILES | IC50 [1] [µM] | MNTC at 24 h [3] [nM] | MNTC at 24 h [4] [nM] | GI50 at 24 h [5] [µM] | GI50 at 24 h [6] [µM] | Activity [7] | Activity [8] | further results
CC(=O)NCCNCc1ccc(OCc2cccc(COc3ccc(CNCCNC(C)=O)c(OCc4cncc(C#N)c4)c3)c2)cc1OCc1cncc(C#N)c1 | > 10 | – | – | – | – | – | – | –
CC(=O)NCCNCc1ccc(OCc2ccc(COc3ccc(CNCCNC(C)=O)c(OCc4cncc(C#N)c4)c3)cc2)cc1OCc1cncc(C#N)c1 | 8.24 | – | – | – | – | – | – | –
CC(=O)NCCNCc1cc(C)c(OCc2cccc(-c3cccc(COc4cc(OCc5cncc(C#N)c5)c(CNCCNC(C)=O)cc4C)c3C)c2C)cc1OCc1cncc(C#N)c1 | – | 2560 | 2560 | 11.8 | 11.8 | Active | Active | inhibition [2]: Dose-dependent effect
CCNCc1cc(C)c(OCc2cccc(-c3ccccc3)c2C)cc1OCc1cncc(C#N)c1 | 0.0022 | – | – | – | – | – | – | –
CCNCc1cc(C)c(OCc2cccc(-c3cccc(COc4cc(OCc5cncc(C#N)c5)c(CNCC)cc4C)c3C)c2C)cc1OCc1cncc(C#N)c1 | 0.0038 | – | – | – | – | – | – | –
COc1nc(OCc2cccc(-c3ccccc3)c2C)ccc1CNCCNC(C)=O | – | 2560 | 2560 | 4.5 | 4.5 | – | – | –
CC(=O)NCCNCc1cc(C)c(OCc2cccc(-c3ccccc3)c2C)cc1OCc1cncc(C#N)c1 | 0.0025 | 2560 | 2560 | 8.1 | 8.1 | Active | Active | EC50 [9]: 0.219 µM; EC50 [10]: 3 µM; selectivity ratio [11]: 37; selectivity ratio [12]: 37; selectivity ratio [13]: 2.7; selectivity ratio [14]: 2.7
COc1nc(OCc2cccc(-c3cccc(COc4ccc(CNCCNC(C)=O)c(OC)n4)c3C)c2C)ccc1CNCCNC(C)=O | 0.025 | 2560 | 2560 | 3.1 | 3.1 | Active | Active | inhibition [2]: Dose-dependent effect; EC50 [9]: 0.334 µM; EC50 [10]: 4.21 µM; selectivity ratio [11]: 9.3; selectivity ratio [12]: 9.3; selectivity ratio [13]: 0.7; selectivity ratio [14]: 0.7
CC(=O)NCCNCc1ccc(OCc2ccc3cc(COc4ccc(CNCCNC(C)=O)c(OCc5cncc(C#N)c5)c4)ccc3c2)cc1OCc1cncc(C#N)c1 | 1.17 | – | – | – | – | – | – | –
CC(=O)NCCNCc1ccc(OCc2ccc(COc3ccc(CNCCNC(C)=O)c(OCc4cncc(C#N)c4)c3)c3ccccc23)cc1OCc1cncc(C#N)c1 | 0.462 | – | – | – | – | – | – | –
